Laboratory results from patent US8299074B2, “P38 MAP kinase inhibitors” (RespiVert Ltd., priority 2008, dated 2012).
Like-named read-outs stand apart in the source and are kept apart here.

Tests used:
U937 cells [1] = assay: LPS-induced TNF alpha release in U937 cells; assay type: cell-based
Experimental: (§1) LPS-Induced TNF Alpha/IL-8 Release in U937 Cells: Potency U937 cells, human monocytic cell line, were differentiated to macrophage-type cells by incubation with phorbol myristate acetate (PMA; 100 ng/ml) for 48 to 72 hours. Cells were pre-incubated with final concentrations of compound for 2 hrs. […] Coli: O111:B4, Sigma) for 4 hrs, and the supernatant collected for determination of TNFα and IL-8 concentration by sandwich ELISA (Duo-set, R&D systems). […] The inhibition of IL-8 production was calculated at each concentration of test compound by comparison with vehicle control.

U937 cells [2] = assay: LPS-induced IL-8 release in U937 cells; assay type: cell-based; details: Homo sapiens, read-out: DU937 (LPS) IL-8 IC50
Experimental: as §1

p38 MAPK alpha (MAPK14) = molecular target: T1, p38 MAPK alpha (MAPK14) (Homo sapiens, UniProt Q16539); assay: Enzyme inhibition assay, p38 MAPK alpha (FRET, Z-LYTE, via MAPKAP-K2); assay type: biochemical; details: read-out: Enzyme p38α IC50
T1 construct: purchased Invitrogen

BEAS2B cells = assay: Poly I:C-induced ICAM-1 induction in BEAS2B cells; assay type: cell-based; details: Homo sapiens, BEAS-2B, read-out: BEAS2B (polyIC) ICAM1 IC50
Experimental: Poly I:C-Induced ICAM-1 Induction in BEAS2B Cells: Potency Poly I:C (1 ug/ml) (Invivogen Ltd., San Diego, Calif.) was transfected into BEAS2B cells (human bronchial epithelial cells, ATCC) with Oligofectamine (Invitrogen, Carlsbad, Calif.). Cells were pre-incubated with final concentrations of compound for 2 hrs. The level of ICAM1 expression on the cell surface was determined by cell-based ELISA. Briefly, at 18 hrs after poly I:C transfection, cells were fixed with 4% formaldehyde in PBS. After quenching endogenous peroxidase by adding 0.1% sodium azide and 1% hydrogen peroxide, cells were washed with wash-buffer (0.1% Tween in PBS: PBS-Tween). After blocking the wells with 5% milk in PBS-Tween for 1 hr, the cells were incubated with anti-human ICAM-1 antibody (Cell Signaling Technology, Danvers, Mass.) in 1% BSA PBS overnight at 4° C. Cells were washed with PBS-Tween and incubated with the secondary antibody (HRP-conjugated anti-rabbit IgG, Dako Ltd., Glostrup, Denmark). The ICAM-1 signal was detected by adding substrate and reading at 450 nm with a reference wavelength of 655 nm using a spectrophotometer. […] The measured OD 450-655 readings were corrected for cell number by dividing with the OD595 reading in each well.

THP-1 cells = assay: LPS-induced TNF alpha release in THP-1 cells; assay type: cell-based; details: Homo sapiens
Experimental: LPS-Induced TNF Alpha Release in THP-1 Cells: Potency […] Coli; O111:B4, Sigma) for 4 hr and the supernatant collected for determination of TNFα concentration by sandwich ELISA (Duo-set, R&D systems). The inhibition of TNFα production was calculated at each concentration by comparison with vehicle control.

[3] = tested on: Differentiated U937 cells; assay: MTT assay (cell viability); assay type: cell-based, human
Experimental: MTT Assay Differentiated U937 cells were pre-incubated with compound for 4 hrs in 5% FCS or 10% FCS for 24 hrs. […] After 1 hr incubation, the media were removed, 200 ul of DMSO added to each well and the plates were shaken lightly for 1 h prior to reading the absorbance at 550 nm. The percentage loss of cell viability was calculated for each well relative to vehicle (0.5% DMSO)-treatment. Consequently an apparent increase in cell viability for drug treatment relative to vehicle is tabulated as a negative percentage.

[4] = Table 3, first MTT column, loss of cell viability at 1 μg/ml
[5] = Table 3, second MTT column, loss of cell viability at 1 μg/ml
[6] = Homo sapiens; read-out: DU937 (LPS) TNFα REC50
[7] = THP-1, Table 3, read-out: THP-1 (LPS) TNFα IC50
[8] = THP-1, Table 2, read-out: THP-1 (LPS) TNFα IC50
[9] = Table 2, loss of cell viability at 1 μg/ml
[10] = Table 2, loss of cell viability, test conducted at 10 μg/ml

T1 sequence (Q16539 whole entry): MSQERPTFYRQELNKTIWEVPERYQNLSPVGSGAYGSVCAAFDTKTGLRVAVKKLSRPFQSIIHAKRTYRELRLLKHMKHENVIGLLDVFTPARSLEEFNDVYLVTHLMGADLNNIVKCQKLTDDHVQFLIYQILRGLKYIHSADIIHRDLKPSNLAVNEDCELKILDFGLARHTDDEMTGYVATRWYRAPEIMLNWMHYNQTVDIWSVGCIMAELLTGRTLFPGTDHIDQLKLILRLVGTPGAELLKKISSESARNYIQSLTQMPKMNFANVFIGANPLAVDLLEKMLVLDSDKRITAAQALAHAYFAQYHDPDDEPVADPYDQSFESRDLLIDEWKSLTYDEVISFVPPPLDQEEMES

Row | SMILES | EC50 (U937 cells [1]; [6]) | IC50 (U937 cells [2]; Table 2) | IC50 (p38 MAPK alpha (MAPK14); Table 2) | IC50 (THP-1 cells; [8]) | IC50 (p38 MAPK alpha (MAPK14); Table 3) | DU937 (cell viability) MTT assay 4 h [3, 4] | DU937 (cell viability) MTT assay 4 h [3, 5] | IC50 (BEAS2B cells; Table 2) | further results
1 | Cc1ccc(-n2nc(C(C)(C)C)cc2NC(=O)Nc2ccc(Oc3ccnc(NC(=O)N(C)C)c3)c3ccccc23)cc1 [Example 44, 3-(4-((4-(3-(3-(tert-Butyl)-1-(p-tolyl)-1H-pyrazol-5-yl)ureido)naphthalen-1-yl)oxy)pyridin-2-yl)-1,1-dimethylurea] | – | – | – | – | < 5000 nM | − (<=30%) | − (<=30%) | – | EC50 (U937 cells [1]; Homo sapiens, read-out: DU937 (LPS) TNFα REC50): < 10 nM; IC50 (U937 cells [2]): < 10 nM; IC50 (BEAS2B cells): < 10 nM; IC50 (THP-1 cells; THP-1, read-out: THP-1 (LPS) TNFα IC50): < 10 nM
2 | Cc1ccc(-n2nc(C(C)(C)C)cc2NC(=O)Nc2ccc(Oc3ccnc(NC(=O)N4CC[C@@H](N(C)C)C4)c3)c3ccccc23)cc1 [Example 54, (R)—N-(4-(4-(3-(3-tert-Butyl-1-p-tolyl-1H-pyrazol-5-yl)ureido)naphthalen-1-yloxy)pyridin-2-yl)-3-(dimethylamino)pyrrolidine-1-carboxamide] | < 10 nM | – | – | – | < 10 nM | − (<=30%) | − (<=30%) | – | IC50 (U937 cells [2]; Table 3): < 10 nM; IC50 (BEAS2B cells; Table 3): < 10 nM; IC50 (THP-1 cells; [7]): < 10 nM
3 | COCC(=O)Nc1cc(Oc2ccc(NC(=O)Nc3cc(C(C)(C)C)nn3-c3ccc(C)cc3)c3ccccc23)ncn1 [Example 63, N-(6-(4-(3-(3-tert-Butyl-1-p-tolyl-1H-pyrazol-5-yl)ureido)naphthalen-1-yloxy)pyrimidin-4-yl)-2-methoxyacetamide] | < 10 nM | – | – | – | – | – | – | – | IC50 (U937 cells [2]; Table 1): < 10 nM; IC50 (p38 MAPK alpha (MAPK14); Table 1): < 10 nM; IC50 (BEAS2B cells; Table 1): < 5000 nM; IC50 (THP-1 cells; THP-1, Table 1, read-out: THP-1 (LPS) TNFα IC50): < 10 nM; DU937 (cell viability) MTT assay 4 h ([3]; Table 1, MTT, loss of cell viability, test conducted at 10 μg/ml): +^$ (>30%); DU937 (cell viability) MTT assay 4 h ([3]; Table 1, first MTT column, loss of cell viability, test conducted at 10 μg/ml): −^$ (<=30%)
4 | COCC(=O)Nc1cc(Oc2ccc(NC(=O)Nc3cc(C(C)C)nn3-c3ccc(C)cc3)c3ccccc23)ccn1 [Example 6, N-(4-(4-(3-(3-Isopropyl-1-p-tolyl-1H-pyrazol-5-yl)ureido)naphthalen-1-yloxy)pyridin-2-yl)-2-methoxyacetamide] | < 10 nM | < 5000 nM | < 10 nM | < 10 nM | – | – | – | < 5000 nM | DU937 (cell viability) MTT assay 4 h [3, 9]: − (<=30%); DU937 (cell viability) MTT assay 24 h [3, 9]: − (<=30%)

Now from value to compound, other results behind:

Row | EC50 (U937 cells [1]; [6]) | IC50 (U937 cells [2]; Table 2) | IC50 (p38 MAPK alpha (MAPK14); Table 2) | IC50 (THP-1 cells; [8]) | SMILES | IC50 (p38 MAPK alpha (MAPK14); Table 3) | DU937 (cell viability) MTT assay 4 h [3, 4] | DU937 (cell viability) MTT assay 4 h [3, 5] | IC50 (BEAS2B cells; Table 2) | further results
5 | < 10 nM | – | – | – | CC(=O)N1CCC(NC(=O)Nc2cc(Oc3ccc(NC(=O)Nc4cc(C(C)(C)C)nn4-c4ccc(C)cc4)c4ccccc34)ccn2)CC1 [Example 39, N-Acetyl 4-(3-(4-(4-(3-(3-tert-butyl-1-p-tolyl-1H-pyrazol-5-yl)ureido)naphthalen-1-yloxy)pyridin-2-yl)ureido)piperidine] | < 10 nM | − (<=30%) | + (>30%) | – | IC50 (U937 cells [2]; Table 3): < 10 nM; IC50 (BEAS2B cells; Table 3): < 5000 nM; IC50 (THP-1 cells; [7]): < 10 nM
6 | < 5000 nM | < 5000 nM | < 10 nM | < 5000 nM | Cc1ccc(-n2nc(C(C)(C)C)cc2NC(=O)Nc2ccc(Oc3ccnc(NC(=O)CNC(N)=O)c3)c3ccccc23)cc1 [Example 14, N-(4-(4-(3-(3-tert-Butyl-1-p-tolyl-1H-pyrazol-5-yl)ureido)naphthalen-1-yloxy)pyridin-2-yl)-2-ureidoacetamide] | – | – | – | < 5000 nM | DU937 (cell viability) MTT assay 4 h [3, 9]: − (<=30%); DU937 (cell viability) MTT assay 24 h [3, 9]: − (<=30%)
7 | < 10 nM | < 10 nM | < 10 nM | < 10 nM | Cc1ccc(-n2nc(C(C)(C)C)cc2NC(=O)Nc2ccc(Oc3ccnc(NC(=O)CN(C)C)c3)c3ccccc23)cc1 [Example 12, N-(4-(4-(3-(3-tert-Butyl-1-p-tolyl-1H-pyrazol-5-yl)ureido)naphthalen-1-yloxy)pyridin-2-yl)-(dimethylamino)acetamide] | – | – | – | < 5000 nM | DU937 (cell viability) MTT assay 4 h [3, 10]: −^$ (<=30%); DU937 (cell viability) MTT assay 24 h [3, 10]: +^$ (>30%)
